# From US11584744B2 (UNIVERSITY OF WASHINGTON, priority 2017, dated 2023)
# Read-outs that look alike come from different tables or passages of the source. Marks after values point to notes of the source that are not given here.
# Tests used:
# [1] = system: S. aureus MSSA (ATCC 29213); assay: MIC susceptibility testing; assay type: cell-based, Staphylococcus aureus
# [2] = system: S. aureus MRSA (ATCC 33591); assay: MIC susceptibility testing; assay type: cell-based, Staphylococcus aureus; settings: Staphylococcus aureus, read-out: S. aureus MRSA (ATCC 33591) MIC
# Summary of the method: (§1)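 CLSI broth microdilution in triplicate, 5×10^5 CFU/mL final, ≤0.5% DMSO; MHB for S. aureus, CA-MHB for E. coli and E. faecium, CA-MHB plus 3% laked horse blood for S. pyogenes (5% CO2).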
# [3] = Cytotoxicity testing on mammalian cells (AlamarBlue, 48 hours); assay type: cell-based; settings: human
# Protocol: Cytotoxicity testing on mammalian cells: Compounds were assayed for cytotoxicity against CRL-8155 (human lymphoblasts) and HepG2 cells (human hepatocellular carcinoma). Cells were exposed to serial dilutions of compounds for 48 hours and toxicity was quantified using AlamarBlue (ThermoFisher Scientific, Waltham, Mass.). Assays were performed in quadruplicate and EC50 values were calculated with non-linear regression methods using software by the Collaborative Drug Database (Burlingame, Calif. www.collaborativedrug.com)
# [4] = value printed with (49), probably a literature reference; cited from earlier work
# [5] = target: recombinant S. aureus MetRS enzyme (Staphylococcus aureus, UniProt A0A0H2XID2); assay: Inhibition of SaMetRS, ATP depletion assay; assay type: biochemical
# Chain of recombinant S. aureus MetRS enzyme (A0A0H2XID2 2-657): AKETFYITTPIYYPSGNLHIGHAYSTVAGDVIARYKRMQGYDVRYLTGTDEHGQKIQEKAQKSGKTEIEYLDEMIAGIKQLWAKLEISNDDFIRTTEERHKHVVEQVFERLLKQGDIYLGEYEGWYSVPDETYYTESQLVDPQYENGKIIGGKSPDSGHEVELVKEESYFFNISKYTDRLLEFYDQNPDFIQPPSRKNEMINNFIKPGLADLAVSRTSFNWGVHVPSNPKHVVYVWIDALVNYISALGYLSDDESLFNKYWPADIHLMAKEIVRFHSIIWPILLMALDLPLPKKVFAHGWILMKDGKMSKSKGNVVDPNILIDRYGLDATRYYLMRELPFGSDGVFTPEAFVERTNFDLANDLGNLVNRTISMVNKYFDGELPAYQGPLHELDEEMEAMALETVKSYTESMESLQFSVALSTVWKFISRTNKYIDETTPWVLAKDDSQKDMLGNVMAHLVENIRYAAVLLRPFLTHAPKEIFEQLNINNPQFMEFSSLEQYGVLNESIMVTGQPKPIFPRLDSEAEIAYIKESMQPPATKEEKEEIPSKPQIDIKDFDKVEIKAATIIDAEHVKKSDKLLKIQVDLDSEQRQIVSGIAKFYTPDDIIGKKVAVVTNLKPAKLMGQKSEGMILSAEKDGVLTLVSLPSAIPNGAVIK
# Summary of the method: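 N-terminal 6-His S. aureus MetRS (25 nM) was pre-incubated 15 min at room temperature with compound, 400 μg/mL E. coli tRNA and pyrophosphatase in HEPES-KOH pH 7.9, 2% DMSO. Reaction started with 150 nM ATP plus 20 μM L-methionine, ran 120 min; remaining ATP read by Kinase-Glo luminescence, IC50 by sigmoidal nonlinear regression.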
# [6] = system: S. aureus (ATCC 29213); assay: MBC determinations (with MIC); assay type: cell-based; settings: Staphylococcus aureus, ATCC29213
# Protocol: Maximum DMSO concentrations were 0.5%. […] Each experiment's inoculum was serially diluted and plated on TSA to count competent cells. Cultures were incubated at 37° C. for at least 20 h and plated on TSA for CFU determination.
# MIC/MBC: Measurements of minimum bactericidal concentrations (MBCs) were done with the S. aureus strain ATCC 29213 (Table 5).
# [7] = Data from Drugbank; cited from earlier work
# [8] = system: S. aureus; assay: Serum shift assays (MIC with and without 50% human serum); assay type: cell-based, Staphylococcus aureus; settings: for MIC: Staphylococcus aureus
# Protocol: Serum shift assays: To assess the role of protein binding on compound susceptibility, MIC determinations were performed in triplicate in the presence and absence of 50% human serum. Serial threefold dilutions of 2× compound were generated in MHB and aliquoted onto 96 well plates with a DMSO limit of 0.5%. Bacteria were adjusted to 1*10^8 CFUs/mL in MHB, then further diluted 1:100 in MHB and 100% heat deactivated filter sterilized pooled human serum. Fifty microliters were added to each well of the corresponding plates, and the plates were incubated at 37° C. for ˜20 h. The lowest concentration causing ≥90% growth inhibition was recorded as the MIC.
# [9] = system: E. faecium (ATCC 19434); assay: MIC susceptibility testing; assay type: cell-based
# Summary of the method: as §1
# [10] = system: S. aureus VISA (ATCC 700699); assay: MIC susceptibility testing; assay type: cell-based
# Summary of the method: as §1
# [11] = system: S. pyogenes (ATCC 19615); assay: MIC susceptibility testing; assay type: cell-based; settings: Streptococcus pyogenes, ATCC19615, 18 h, read-out: S. pyogenes (ATCC 19615) MIC
# [12] = system: S. epidermidis (ATCC 49134); assay: MIC susceptibility testing; assay type: cell-based; settings: Staphylococcus epidermidis, ATCC49134, read-out: S. epidermidis (ATCC 49134) MIC
# [13] = system: E. faecalis (ATCC 29212); assay: MIC susceptibility testing; assay type: cell-based
# [14] = system: S. aureus MRSA (ATCC 43300); assay: MIC susceptibility testing; assay type: cell-based
# Summary of the method: as §1
# [15] = system: S. epidermidis (ATCC 12228); assay: MIC susceptibility testing; assay type: cell-based; settings: Staphylococcus epidermidis, ATCC12228, read-out: S. epidermidis (ATCC 12228) MIC
# [16] = system: S. aureus MSSA (ATCC 19636); assay: MIC susceptibility testing; assay type: cell-based; settings: Staphylococcus aureus, read-out: S. aureus MSSA (ATCC 19636) MIC
# Summary of the method: as §1
# [17] = system: S. pneumoniae (ATCC 49619); assay: MIC susceptibility testing; assay type: cell-based; settings: Streptococcus pneumoniae, ATCC49619, 18 h, read-out: S. pneumoniae (ATCC 49619) MIC
# [18] = system: E. faecium VRE (ATCC 51559); assay: MIC susceptibility testing; assay type: cell-based, Enterococcus faecium
# Summary of the method: as §1
# [19] = system: E. coli (ATCC 25922); assay: MIC susceptibility testing; assay type: cell-based; settings: Escherichia coli, ATCC25922
# Summary of the method: as §1
# [20] = system: P. aeruginosa (ATCC 27853); assay: MIC susceptibility testing; assay type: cell-based; settings: Pseudomonas aeruginosa, ATCC27853
# [21] = system: S. aureus (ATCC 29213); assay: Macromolecular synthesis assays (radiolabeled precursor incorporation); assay type: cell-based, Staphylococcus aureus; settings: 30 minute incubations
# Protocol: Macromolecular synthesis assays: Methods for measuring uptake of radiolabeled precursors by S. aureus (ATCC strain 29213) were adapted from previous publications. For these assays, bacteria were grown in defined media (DM): RPMI-1640 pH 7.3±0.1 without phenol red or L-glutamine (Lonza, Basel, Switzerland) supplemented with 4 mM L-glutamine (Lonza, Basel, Switzerland), 10 mM HEPES (Lonza, Basel, Switzerland), and 1% (w/v) D-glucose (Sigma Aldrich, St. Louis, Mo.). Fresh overnight cultures grown in DM at 37° C. were diluted 1:50 in pre-warmed DM and grown at 37° C. with shaking (150 rpm) until reaching an OD600 of 0.420 correlating to ˜1*10^9 CFUs/mL in mid-log phase. Each compound was assayed in quadruplicate with an 11-point three-fold serial dilution per radioisotope. A pre-warmed 96-well V-bottom plate (Corning 3894; Corning, Corning, Mass.) containing 25 μL of 4× final concentration of test compound was inoculated with 65 μL of mid-log phase bacteria (OD600 of 0.420). Both positive and negative control wells received 25 μL untreated DM and 65 μL of inoculum at the same time. After one minute, 10 μL of radiolabeled precursor (10× final concentration in DM) was added to samples and positive control wells. Final isotope concentrations for assay of [3H]-lysine (protein), [3H]-thymidine (DNA), and [3H]-uridine (RNA) were 10 μCi/mL, 2 μCi/mL, and 2 μCi/mL respectively. […] After termination, 10 μL of 10× radiolabeled precursor was added to negative control wells. The negative control consisted of adding radiolabeled precursors after termination of the bacterial incubation in order to represent background measurement of the isotope. Plates were sealed with plate tape (Thermo Fischer Scientific, Waltham, Mass.) and shaken at 250 rpm for one hour at room temperature. Aliquots of 125 μL were transferred from the 96-well V-bottom plates to 96-well filter plates (Merck Millipore, Billerica, Mass.). To bind macromolecules, the samples were passed through the filter membrane (0.45 μM hydrophilic Durapore PVDF membrane) with a vacuum manifold, then the filter was washed with 4×200 μL 10% TCA and 1×150 μL of 95% ethanol, and dried overnight in vacuum at room temperature. 25 μL Ultima Gold scintillation fluid (Perkin Elmer, Waltham, Mass.) was added to each well and DPM was quantified using a MicroBeta^2-2450 (Perkin Elmer, Waltham, Mass.) scintillation counter. The percent incorporation was determined by subtracting each well by the average negative background and dividing by the average positive incorporation×100. Error bars represent SEM between replicates. The assay was run twice with similar results.
# [22] = CRL-8155 cells (human lymphoblasts), read-out: Mamm. cells (CRL8155) CC50
# [23] = HepG2 cells (human hepatocellular carcinoma), read-out: Mamm. cells (HepG2) CC50
# [24] = recombinant enzyme, lower limit of detection 0.025 μM, read-out: MetRS S. aureus (enzyme) IC50
# [25] = read-out: Avg MIC ± SEM (+50% serum), 50% human serum
# [26] = read-out: Avg MIC ± SEM (no serum), no serum
# [27] = medium with 3% laked horse blood
# [28] = Enterococcus faecium; read-out: E. faecium VRE (ATCC 51559) MIC
smiles,measurement,setting,value
"CN[C@H](CC(C)C)C(=O)N[C@H]1C(=O)N[C@@H](CC(N)=O)C(=O)N[C@H]2C(=O)N[C@H]3C(=O)N[C@H](C(=O)N[C@H](C(=O)O)c4cc(O)cc(O)c4-c4cc3ccc4O)[C@H](O)c3ccc(c(Cl)c3)Oc3cc2cc(c3O[C@@H]2O[C@H](CO)[C@@H](O)[C@H](O)[C@H]2O[C@H]2C[C@](C)(N)[C@H](O)[C@H](C)O2)Oc2ccc(cc2Cl)[C@H]1O [VAN, vancomycin]",MIC,"[1]; Staphylococcus aureus, 18 h, read-out: S. aureus MSSA (ATCC 29213) MIC",1.25 µg/mL
same,MIC,[2],1.25 µg/mL
same,CC50 at 48 h,[3]; [22],> 145 µg/mL
same,CC50 at 48 h,[3]; [23],> 145 µg/mL
same,% binding to mouse plasma,[4],25 (49) %
same,IC50,[5]; [24],> 10 µM
same,MBC,[6],5 µg/mL
same,MIC,[6],1.25 µg/mL
same,% binding to human plasma,[7],55* %
same,Avg MIC ± SEM (+50% serum),[8]; 50% human serum,1.213 ± 0.12 µg/mL
same,MIC,[8]; [25],1.21 µg/mL
same,MIC,[8]; [26],0.714 ± 0.05 µg/mL
same,MIC,"[9]; Enterococcus faecium, ATCC19434, read-out: E. faecium (ATCC 19434) MIC",0.625 µg/mL
same,MIC,"[10]; Staphylococcus aureus, read-out: S. aureus VISA (ATCC 700699) MIC",10 µg/mL
same,MIC,[11],0.625 µg/mL
same,MIC,[12],2.5 µg/mL
same,MIC,"[13]; Enterococcus faecalis, ATCC29212, read-out: E. faecalis (ATCC 29212) MIC",5 µg/mL
same,MIC,"[14]; Staphylococcus aureus, read-out: S. aureus MRSA (ATCC 43300) MIC",1.25 µg/mL
same,MIC,[15],2.5 µg/mL
same,MIC,[16],1.25 µg/mL
same,MIC,[17],0.313 µg/mL
same,MIC,"[18]; Enterococcus faecium, read-out: E. faecium VRE (ATCC 51559) MIC",> 10 µg/mL
"Clc1cc(Cl)cc(CNCCCNc2nc3ncccc3[nH]2)c1 [Compound 1575, N1-(3,5-dichlorobenzyl)—N3-(1H-imidazo[4,5-b]pyridin-2-yl)propane-1,3-diamine]",MIC,"[1]; Staphylococcus aureus, 18 h; read-out: S. aureus MSSA (ATCC 29213) MIC",10 µg/mL
same,CC50 at 48 h,[3]; [22],12.2 µg/mL
same,CC50 at 48 h,[3]; [23],> 17.5 µg/mL
same,IC50,[5]; [24],< 0.025 µM
same,MIC,[11]; [27],> 10 µg/mL
same,MIC,"[13]; Enterococcus faecalis, ATCC29212; read-out: E. faecalis (ATCC 29212) MIC",1.25 µg/mL
same,MIC,[19],> 10 µg/mL
same,MIC,[14]; Staphylococcus aureus; read-out: S. aureus MRSA (ATCC 43300) MIC,> 10 µg/mL
same,MIC,[17]; [27],> 10 µg/mL
same,MIC,[20],> 10 µg/mL
same,MIC,[18]; [28],0.625 µg/mL
"O=C(O)c1cn(C2CC2)c2cc(N3CCNCC3)c(F)cc2c1=O [CIP, ciprofloxacin]",IC50,[5],> 10 µM
same,MIC,[8]; [25],0.152 ± 0.01 µg/mL
same,MIC,[8]; [26],0.145 ± 0.001 µg/mL
same,MIC,"[9]; Enterococcus faecium, ATCC19434; read-out: E. faecium (ATCC 19434) MIC",5 µg/mL
same,MIC,[10]; Staphylococcus aureus; read-out: S. aureus VISA (ATCC 700699) MIC,> 10 µg/mL
same,MIC,[11],0.625 µg/mL
same,MIC,[19],0.039 µg/mL
same,incorporation of 3H-thymidine (DNA synthesis),[21],selective inhibition of DNA synthesis
same,MIC,[18]; [28],5 µg/mL
